Reference: patent publication US11917960B2, “Methods to improve genetic transformation of sorghum” (Commonwealth Scientific and Industrial Research Organisation, priority 2016, dated 2024)
Marks after values point to notes of the source that are not given here.

What was measured:
Assay type in all cases: cell-based, Sorghum bicolor L
[1] = system: DEC tissues/somatic embryos; assay: Sensitivity of DEC tissues/somatic embryos to Geneticin; settings: for Green DEC tissue survival (%): CIM + 1 mg/l LA, 6 weeks culture
Procedure: The experiment was carried out using 6 weeks-old uniform, healthy green-coloured DEC tissues about 5 mm in size and which contained some somatic embryos, produced after culturing on CIM containing 1 mg/l LA. The Geneticin levels used were 0, 15, 25, 35 and 45 mg/L, respectively. Three replicates each of 15 green DEC tissue pieces per plate were used for each concentration of Geneticin tested. The tissues were cultured for 6 weeks, being subcultured every two weeks onto the same medium, including the same Geneticin concentrations.
After 6 weeks of culture, the number of green DEC tissues that had survived was counted.
DEC tissues (about 5 mm) began to display geneticin stress symptoms on selective callus induction media (CIM with geneticin) within 3 weeks of culture. […] Very few calli (2-6) survived with dead patches. On this basis, geneticin at a final concentration of 25 mg/i was used in the callus induction media for 3 cycles (2 weeks each) and then increased to 30 mg/i for one cycle in shoot induction media (Table 6). Different concentrations of geneticin in CIM and SIM was deemed optimal in preventing shoot regeneration from non-transformed callus.

immature embryos (IEs) [2] = assay: DEC tissue induction from immature embryos on CIM with or without LA; settings: for Green tissue induction frequency: CIM + 1 mg/l LA, 6 weeks culture, mean ± SD, frequency calculated as a percentage, in %
Procedure: Plants of the grain sorghum of the inbred cultivar TX-430 (Miller 1984) were grown in a plant growth chamber (Conviron, PGC-20 flex) at 28±1° C. “day” temperature and 20±1° C. “night” temperature, with a. 16 hr photoperiod at a light intensity during the “day” of 900-1000 LUX. Panicles were covered with white translucent paper bags before flowering. Immature embryos were harvested from panicles 12-15 days after anthesis. Panicles were washed several times with water and developing seeds that were uniform in size were isolated and surface-sterilized using 20% commercial bleach mixed with 0.1% Tween-20 for 15-20 min. They were then washed with sterile distilled water 3 times each for 20 min, and blotted dry in a laminar flow hood. Immature embryos (IEs) ranging from 1.4 to 2.5 mm in length were aseptically isolated in the laminar flow hood and used as the starting tissue for preparation of green regenerative tissue.
The isolated IEs ranging from 1.4 to 2.5 mm in length were placed onto callus induction media (CIM) of various compositions with their scutellum facing upward. CIM modified to improve callus quality and induction frequency from immature embryos, as well as callus regeneration media, included α-Lipoic acid (1 to 5 mg/1), Melatonin (5 to 10 mg/l) and 2-Aminoidan-2-phosphonic acid HCl (1 to 2 mg/l) unless otherwise stated. For the development of green tissue, immature embryos were incubated under fluorescent light of approximately 45-50 μmol s^−1 m^−2 (16 h/day) in a tissue culture room at 24±2° C. After three days of culture, the root and shoot poles of the immature embryos were aseptically separated and re-inoculated on to the same media (CIM) and maintained under the same conditions as described above. They were subcultured every two weeks for 6 weeks by chopping the callus into 2-3 mm portions, re-inoculating on to the same media (CIM) and maintaining under the same conditions described above, after which time the tissue cultures were evaluated for callus quality, callus induction efficiency and transformation efficiency. Callus induction frequency was calculated as the number of calli obtained (˜5 mm) over total number of immature embryos inoculated, as a percentage.
Sets of IEs ranging from 1.4 to 2.5 mm in length, each set isolated from one panicle, were aseptically isolated and cultured on CIM medium as described in Example 1. Some sets were cultured with the addition of α-Lipoic acid (LA, 1 mg/I or 5 mg/), others without, in order to determine the effect of this agent.
After 6 weeks of culture including subculture every two weeks onto the same medium, DEC tissue induction frequency and quality were evaluated. […]

immature embryos (IEs) [3] = assay: DEC tissue yield on CIM with or without LA; settings: for DEC yield in number ~5 mm each: CIM + 1 mg/l LA, 45 IEs
Text: After 4 to 12 weeks of culture, the number of DEC tissues obtained were counted. The number of DEC tissue pieces (˜5 mm) obtained at 12 weeks on CIM with LA was almost double when compared to using CIM without LA. Furthermore, the quality of the DEC tissues obtained on CIM with LA was improved compared to using the medium without LA.

DEC tissue of sorghum = assay: Regeneration frequency and number of shoots per DEC tissue on SIM and SRM; settings: for Number of shoots/callus / Regeneration frequency (%): LA in SIM and SRM, mean ± SD
Procedure: After six weeks on the CIM, some uniform green-coloured DEC tissue of about 4-7 mm diameter were transferred on to shoot induction medium (SIM) and cultured for another 2-3 weeks in order to begin organogenesis. Tissues which had induced shoot buds were then transferred to shoot regeneration medium (SRM) and again cultured for 2-3 weeks. Regenerability of DEC tissue of different ages (2-6 months from initiation) was also tested on SRM medium comprising different concentrations of BAP (0.5-1.0 mg/l) and TDZ (0.5-1.0 mg/l). The number of shoots were counted and the regeneration frequency (i.e. the number of shoots/DEC tissue) was calculated after 3 weeks culture on SRM (total of approximately 5 weeks culture inclusive of culture on SIM and SRM). Individual shoots approximately 2-3 cm in length were transferred to shoot out growth (SOG) medium and cultured for another 2-3 weeks. Well-developed shoots (4-5 cm in length), were carefully separated from the cluster and transferred to root induction medium (RIM) and cultured for 3-4 weeks. For shoot induction to complete plant regeneration, 50-60 μmol s^−1 m^−2 (16 h/day) fluorescent light was used in the tissue culture room at 24±2° C. Shoots (about 8 cm in length) with numerous (often 15-20) healthy looking roots were transferred to soil and grown to maturity in a PC2 glasshouse at […]. The optimized culture medium composition for the different stages of plant transformation from callus induction to plant regeneration from green tissue induced from immature embryos is presented in Table 1.
Uniform ready-to-use high quality green DEC tissues (5 mm) each with nodular structures induced on CIM medium with or without added LA were transferred to shoot induction medium (SIM) with and without LA and cultured for another 2-3 weeks. Tissues with induced shoot buds were then transferred to shoot regeneration medium (SRM) with or without added LA and again cultured for 2 weeks. Regenerability of green tissues of different ages (2-6 months from initiation) was tested on SRM medium containing different concentrations of BAP (0.5-1.0 mg/l) and TDZ (0.5-1.0 mg/l). Tissues including the shoot buds were again cultured on hormone free medium (SOG) with or without LA. The number of shoots was counted after 2 weeks of culture on SRM and the regeneration frequency (number of shoots/DEC tissue) calculated.

[4] = after 8 weeks on CIM with G25 and 35 mg/l

**Q.** For `CN[C@@H]1[C@@H](O)[C@@H](O[C@@H]2[C@@H](O)[C@H](O[C@H]3O[C@H]([C@@H](C)O)[C@@H](O)[C@H](O)[C@H]3N)[C@@H](N)C[C@H]2N)OC[C@]1(C)O` [Geneticin], which “Green DEC tissue survival (%)” value ([1]; Geneticin 15 mg/l) is on record?
**A.** 80 ± 1.0%

**Q.** And the “Green DEC tissue survival (%)” value ([1]; Geneticin 25 mg/l)?
**A.** 4 ± 2.6%

**Q.** And the “Green DEC tissue survival (%)” value ([1]; Geneticin 35 mg/l)?
**A.** 2 ± 0.5%

**Q.** What about the “Green DEC tissue survival (%)” value ([1]; Geneticin 45 mg/l) of the same molecule?
**A.** 0%

**Q.** What about the Appearance of calli [1, 4] of the same molecule?
**A.** most of the calli turned dark brown in colour with no signs of survival

**Q.** What about the “Number of calli survived with dead patches” value [1, 4] of the same molecule?
**A.** 2-6

**Q.** And the “Time until DEC tissues began to display geneticin stress symptoms” value ([1]; selective callus induction media (CIM with geneticin))?
**A.** ≤ 3 weeks

**Q.** What does the source list for `O=C(O)CCCCC1CCSS1` (stereo not drawn) [LA, α-Lipoic acid]?
**A.** DEC tissue induction at higher concentration of LA compared to 1 mg/ml (immature embryos (IEs) [2]; LA 5 mg/l in CIM): no significant further improvement; Green tissue induction frequency (immature embryos (IEs) [2]; immature embryo size 1.5-2 mm): 79.0 ± 6.5; Green tissue induction frequency (immature embryos (IEs) [2]; immature embryo size >2 mm): 59.0 ± 5.5; DEC tissue induction frequency compared to CIM without LA (immature embryos (IEs) [2]; small immature embryos (1.5-2 mm), significant at p<0.01): greater; Number of DEC tissue pieces (~5 mm) compared to CIM without LA (immature embryos (IEs) [3]; 12 weeks on CIM with LA): almost double; DEC yield in number ~5 mm each (immature embryos (IEs) [3]; culturing time 4 weeks): 36; DEC yield in number ~5 mm each (immature embryos (IEs) [3]; culturing time 6 weeks): 90; DEC yield in number ~5 mm each (immature embryos (IEs) [3]; culturing time 8 weeks): 120; DEC yield in number ~5 mm each (immature embryos (IEs) [3]; culturing time 10 weeks): 218; DEC yield in number ~5 mm each (immature embryos (IEs) [3]; culturing time 12 weeks): 825; Number of shoots/callus (DEC tissue of sorghum; DEC tissue age 2 months): 40 ± 4.5^b; Regeneration frequency (%) (DEC tissue of sorghum; DEC tissue age 2 months): 97.6 ± 2.5%; Number of shoots/callus (DEC tissue of sorghum; DEC tissue age 4 months): 40 ± 1.5^d; Regeneration frequency (%) (DEC tissue of sorghum; DEC tissue age 4 months): 97 ± 2.6 %; Number of shoots/callus (DEC tissue of sorghum; DEC tissue age 6 months): 33 ± 2.5^f; Regeneration frequency (%) (DEC tissue of sorghum; DEC tissue age 6 months): 94.3 ± 2.0 %; Regeneration frequency and number of shoots/DEC tissue for different ages of DEC tissue (DEC tissue of sorghum; LA included in both SIM and SRM, versus without LA): did not decline as much
